In US10722501B2 (BAYER AKTIENGESELLSCHAFT, priority 2016, dated 2020):

Target: T1, recombinant full-length human prolyl endopeptidase (PREP) (Homo sapiens, UniProt P48147)
T1 construct: To recombinant full-length human prolyl endopeptidase (PREP, R&D-Systems, 4308-SE); purchased R&D-Systems 4308-SE
T1 sequence (P48147 1-710): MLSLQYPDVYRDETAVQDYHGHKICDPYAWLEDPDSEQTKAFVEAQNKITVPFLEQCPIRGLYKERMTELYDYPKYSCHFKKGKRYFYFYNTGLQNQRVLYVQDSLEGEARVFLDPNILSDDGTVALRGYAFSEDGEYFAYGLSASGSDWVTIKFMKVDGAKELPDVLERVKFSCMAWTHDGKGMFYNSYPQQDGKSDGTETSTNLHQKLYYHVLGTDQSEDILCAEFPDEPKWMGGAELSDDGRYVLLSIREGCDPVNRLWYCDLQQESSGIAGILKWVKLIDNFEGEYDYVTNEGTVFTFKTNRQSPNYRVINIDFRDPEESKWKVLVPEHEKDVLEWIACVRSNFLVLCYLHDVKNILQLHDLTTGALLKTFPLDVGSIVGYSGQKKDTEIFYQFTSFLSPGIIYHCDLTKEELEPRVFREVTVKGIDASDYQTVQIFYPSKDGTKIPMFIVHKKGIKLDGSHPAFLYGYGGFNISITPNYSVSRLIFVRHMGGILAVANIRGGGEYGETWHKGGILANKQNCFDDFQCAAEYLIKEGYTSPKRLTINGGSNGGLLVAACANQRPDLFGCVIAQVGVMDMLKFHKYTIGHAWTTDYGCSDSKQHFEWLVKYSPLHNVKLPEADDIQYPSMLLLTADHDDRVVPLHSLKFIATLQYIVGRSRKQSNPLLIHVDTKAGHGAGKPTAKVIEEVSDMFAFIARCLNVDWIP
Test: Biochemical human prolyl endopeptidase (PREP) assay with fluorescently labelled substrate
Details: substrate Z-Gly-Pro-AMC 50 μM, 32° C., 60 min; some as mean values from multiple independent determinations
Procedure: B-1 Biochemical Human Prolyl Endopeptidase (PREP) Assay for Identification of Inhibitors of PREP Activity Using a Fluorescently Labelled Substrate Principle of the Assay:
The enzymatic conversion of the fluorescent peptide substrate was observed on the basis of the measurement of the fluorescence intensity. The enzyme activity was determined by the ascertaining of the initial slope in the increase in fluorescence. Compounds that inhibit PREP were identified on the basis of the decrease in the initial slope compared to a reaction mixture without test compound.
Determination of Activity:
IC50 values were determined by the plotting of the percentage PREP activity against the concentration of the test substance by interpolation.
To recombinant full-length human prolyl endopeptidase (PREP, R&D-Systems, 4308-SE; final concentration, for example, 0.4 nM, volume: 25 μl) in reaction buffer (50 mM Tris-HCl, pH 7.5; 150 mM NaCl; 0.13% BSA, 5 mM EDTA, 3 mM GSH, 0.005% Brij-35) was added a test compound (in DMSO, in an appropriate final concentration range from 1 nM to 30 μM, volume: 1 μl) in a well of a 384-well microtitre plate. The reaction was initiated by adding the substrate Z-Gly-Pro-AMC (final concentration 50 μM; Z=carboxybenzyl; AMC=7-amino-4-methylcoumarin, volume: 25 μl). The progress of the PREP reaction was observed by measuring the fluorescence intensity in a Tecan SAFIRE II plate spectrophotometer at 32° C. over a period of 60 min (excitation wavelength: 360 nm, emission wavelength: 465 nm).
Table B-1 below collates the IC50 values thus obtained from the human prolyl endopeptidase assay for individual working examples of the invention (some as mean values from multiple independent individual determinations).

SMILES | IC50 [nM]
O=C(C1CCCc2nn(Cc3ccc(C(F)(F)F)nc3)c(=O)n21)N1CC[C@@H](F)C1 (mixture of isomers) [Example 100, (5RS)-5-{[(3R)-3-Fluoropyrrolidin-1-yl]carbonyl}-2-{[6-(trifluoromethyl)pyridin-3-yl]methyl}-5,6,7,8-tetrahydro[1,2,4]triazolo[4,3-a]pyridin-3(2H)-one] | 7.9
O=C(C1CCCc2nn(Cc3ccc(F)c(C(F)(F)F)c3)c(=O)n21)N1CC[C@H](O)C1 (mixture of isomers) [Example 101, (5RS)-2-[4-Fluoro-3-(trifluoromethyl)benzyl]-5-{[(3S)-3-hydroxypyrrolidin-1-yl]carbonyl}-5,6,7,8-tetrahydro[1,2,4]triazolo[4,3-a]pyridin-3(2H)-one] | 3.05
Cc1ccc(Cn2nc3n(c2=O)C(C(=O)N2CCC(F)(CO)C2)CCC3)cc1 (mixture of isomers) [Example 147, (5S)-5-{[(3RS)-3-Fluoro-3-(hydroxymethyl)pyrrolidin-1-yl]carbonyl}-2-(4-methylbenzyl)-5,6,7,8-tetrahydro[1,2,4]triazolo[4,3-a]pyridin-3(2H)-one] | 70
O=C(C1CCc2nn(Cc3ccc(Cl)nc3)c(=O)n21)N1CC[C@H](F)C1 (mixture of isomers) [Example 163, (5RS)-2-[(6-Chloropyridin-3-yl)methyl]-5-{[(3S)-3-fluoropyrrolidin-1-yl]carbonyl}-2,5,6,7-tetrahydro-3H-pyrrolo[2,1-c][1,2,4]triazol-3-one] | 2.8
O=C(C1CCc2nn(Cc3ccc(C(F)(F)F)nc3)c(=O)n21)N1CC[C@H](F)C1 (mixture of isomers) [Example 164, (5RS)-5-{[(3S)-3-Fluoropyrrolidin-1-yl]carbonyl}-2-{[6-(trifluoromethyl)pyridin-3-yl]methyl}-2,5,6,7-tetrahydro-3H-pyrrolo[2,1-c][1,2,4]triazol-3-one] | 3.7
O=C(C1CCc2nn(Cc3ccc(F)c(Cl)c3)c(=O)n21)N1CC[C@H](F)C1 (mixture of isomers) [Example 165, (5RS)-2-(3-Chloro-4-fluorobenzyl)-5-{[(3S)-3-fluoropyrrolidin-1-yl]carbonyl}-2,5,6,7-tetrahydro-3H-pyrrolo[2,1-c][1,2,4]triazol-3-one] | 0.89
O=C(C1CCc2nn(Cc3ccnc(C(F)(F)F)c3F)c(=O)n21)N1CC[C@H](F)C1 (mixture of isomers) [Example 178, (5RS)-5-{[(3S)-3-Fluoropyrrolidin-1-yl]carbonyl}-2-{[3-fluoro-2-(trifluoromethyl)pyridin-4-yl]methyl}-2,5,6,7-tetrahydro-3H-pyrrolo[2,1-c][1,2,4]triazol-3-one] | 1.3
O=C([C@@H]1CCC(O)c2nn(Cc3ccc(C(F)(F)F)nc3)c(=O)n21)N1CC[C@H](F)C1 (mixture of isomers) [Example 275, (5S,8RS)-5-{[(3S)-3-Fluoropyrrolidin-1-yl]carbonyl}-8-hydroxy-2-{[6-(trifluoromethyl)pyridin-3-yl]methyl}-5,6,7,8-tetrahydro[1,2,4]triazolo[4,3-a]pyridin-3(2H)-one] | 1.15
O=C([C@@H]1CCC(O)c2nn(Cc3cncc(Cl)c3)c(=O)n21)N1CC[C@H](F)C1 (mixture of isomers) [Example 279, (5S,8RS)-2-[(5-Chloropyridin-3-yl)methyl]-5-{[(3S)-3-fluoropyrrolidin-1-yl]carbonyl}-8-hydroxy-5,6,7,8-tetrahydro[1,2,4]triazolo[4,3-a]pyridin-3(2H)-one] | 0.485
Cc1cc(Cn2nc3n(c2=O)C(C(=O)N2CC[C@H](F)C2)CCC3)on1 (mixture of isomers) [Example 416, (5RS)-5-{[(3S)-3-Fluoropyrrolidin-1-yl]carbonyl}-2-[(3-methyl-1,2-oxazol-5-yl)methyl]-5,6,7,8-tetrahydro[1,2,4]triazolo[4,3-a]pyridin-3(2H)-one] | 3.4
O=C([C@@H]1CCC(O)c2nn(Cc3ccc(Cl)cn3)c(=O)n21)N1CC[C@H](F)C1 (mixture of isomers) [Example 547, (5S,8RS)-2-[(5-Chloropyridin-2-yl)methyl]-5-{[(3S)-3-fluoropyrrolidin-1-yl]carbonyl}-8-hydroxy-5,6,7,8-tetrahydro[1,2,4]triazolo[4,3-a]pyridin-3(2H)-one] | 0.43
O=C([C@@H]1CCC(O)c2nn(Cc3ncc(F)cc3F)c(=O)n21)N1CC[C@H](F)C1 (mixture of isomers) [Example 585, (5S,8SR)-2-[(3,5-Difluoropyridin-2-yl)methyl]-5-{[(3S)-3-fluoropyrrolidin-1-yl]carbonyl}-8-hydroxy-5,6,7,8-tetrahydro[1,2,4]triazolo[4,3-a]pyridin-3(2H)-one] | 0.43
CC(c1ccc(Cl)cc1)n1nc2n(c1=O)C(C(=O)N1CCCC1)CCC2 (racemic) [Example 3, (5RS)-2-[(1 RS)-1-(4-Chlorophenyl)ethyl]-5-(pyrrolidin-1-ylcarbonyl)-5,6,7,8-tetrahydro[1,2,4]triazolo[4,3-a]pyridin-3(2H)-one] | 6

Now from value to molecule:

IC50 [nM] | SMILES
46 | Cc1ccc(Cn2nc3n(c2=O)C(C(=O)N2CCC4(C2)CC4(F)F)CCC3)cc1 (mixture of isomers) [Example 128, (5S)-{[(3RS)-1,1-Difluoro-5-azaspiro[2.4]hept-5-yl]carbonyl}-2-(4-methylbenzyl)-5,6,7,8-tetrahydro[1,2,4]triazolo[4,3-a]pyridin-3(2H)-one]
1.75 | O=C(C1CCCc2nn(Cc3ccc(C(F)(F)F)cc3)c(=O)n21)N1CCCC1 (racemic) [Example 1, (5RS)-5-(Pyrrolidin-1-ylcarbonyl)-2-[4-(trifluoromethyl)benzyl]-5,6,7,8-tetrahydro[1,2,4]triazolo[4,3-a]pyridin-3(2H)-one]
15.4 | CC(C)(C)c1ccc(Cn2nc3n(c2=O)C(C(=O)N2CCCC2)CCC3)cc1 (racemic) [Example 2, (5RS)-2-(4-tert-Butylbenzyl)-5-(pyrrolidin-1-ylcarbonyl)-5,6,7,8-tetrahydro[1,2,4]triazolo[4,3-a]pyridin-3(2H)-one]
120 | CS(=O)(=O)c1ccc(Cn2nc3n(c2=O)C(C(=O)N2CCCC2)CCC3)cc1 (racemic) [Example 6, (5RS)-2-[4-(Methylsulphonyl)benzyl]-5-(pyrrolidin-1-ylcarbonyl)-5,6,7,8-tetrahydro[1,2,4]triazolo[4,3-a]pyridin-3(2H)-one]
8 | O=C(C1CCCc2nn(Cc3ccc(OC(F)F)cc3)c(=O)n21)N1CCCC1 (racemic) [Example 7, (5RS)-2-[4-(Difluoromethoxy)benzyl]-5-(pyrrolidin-1-ylcarbonyl)-5,6,7,8-tetrahydro[1,2,4]triazolo[4,3-a]pyridin-3(2H)-one]
0.99 | Cc1cccc(Cn2nc3n(c2=O)C(C(=O)N2CCCC2)CCC3)c1 (racemic) [Example 8, (5RS)-2-(3-Methylbenzyl)-5-(pyrrolidin-1-ylcarbonyl)-5,6,7,8-tetrahydro[1,2,4]triazolo[4,3-a]pyridin-3(2H)-one]
39 | Cc1noc(-c2ccc(Cn3nc4n(c3=O)C(C(=O)N3CCCC3)CCC4)cc2)n1 (racemic) [Example 9, (5RS)-2-[4-(3-Methyl-1,2,4-oxadiazol-5-yl)benzyl]-5-(pyrrolidin-1-ylcarbonyl)-5,6,7,8-tetrahydro[1,2,4]triazolo[4,3-a]pyridin-3(2H)-one]
24 | Cc1nc(-c2ccc(Cn3nc4n(c3=O)C(C(=O)N3CCCC3)CCC4)cc2)no1 (racemic) [Example 10, (5RS)-2-[4-(5-Methyl-1,2,4-oxadiazol-3-yl)benzyl]-5-(pyrrolidin-1-ylcarbonyl)-5,6,7,8-tetrahydro[1,2,4]triazolo[4,3-a]pyridin-3(2H)-one]
0.7 | O=C(C1CCCc2nn(Cc3ccc4c(c3)CCC4)c(=O)n21)N1CCCC1 (racemic) [Example 11, (5RS)-2-(2,3-Dihydro-1H-inden-5-ylmethyl)-5-(pyrrolidin-1-ylcarbonyl)-5,6,7,8-tetrahydro[1,2,4]triazolo[4,3-a]pyridin-3(2H)-one]
